# Literature values as cited in paper PMC2217447 (The Journal of General Physiology, 2004).
# Entries after “also recorded” stand apart in the source; their conditions may differ. Like-named read-outs stand apart in the source and are kept apart here.
# Assays:
# Shaker B K^+ channels [1] = molecular target: T1, Shaker B K^+ channels (Drosophila melanogaster, UniProt P08510); settings: for effect of external K^+ on block of Shaker (in words): ref Goldstein and Miller, 1993
# Shaker B K^+ channels [2] = molecular target: T1, Shaker B K^+ channels; settings: external TEA, ref Gómez-Lagunas, 1997
# T1 sequence (P08510 whole entry): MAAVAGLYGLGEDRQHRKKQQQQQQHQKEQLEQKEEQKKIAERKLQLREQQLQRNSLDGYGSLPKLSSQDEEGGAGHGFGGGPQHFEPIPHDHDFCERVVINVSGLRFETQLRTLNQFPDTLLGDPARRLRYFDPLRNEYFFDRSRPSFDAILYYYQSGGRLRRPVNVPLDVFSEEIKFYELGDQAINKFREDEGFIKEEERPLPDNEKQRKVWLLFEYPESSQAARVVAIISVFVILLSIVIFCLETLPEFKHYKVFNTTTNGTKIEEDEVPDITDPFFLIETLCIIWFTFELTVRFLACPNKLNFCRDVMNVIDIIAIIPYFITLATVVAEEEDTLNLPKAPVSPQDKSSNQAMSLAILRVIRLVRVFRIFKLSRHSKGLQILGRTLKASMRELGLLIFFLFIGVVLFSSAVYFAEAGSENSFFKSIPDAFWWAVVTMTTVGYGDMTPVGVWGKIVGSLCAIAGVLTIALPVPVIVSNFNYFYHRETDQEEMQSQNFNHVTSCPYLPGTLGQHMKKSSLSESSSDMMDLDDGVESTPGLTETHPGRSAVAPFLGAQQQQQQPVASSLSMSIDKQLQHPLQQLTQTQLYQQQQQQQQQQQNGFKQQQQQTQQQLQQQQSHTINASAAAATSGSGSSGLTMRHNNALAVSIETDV
molecule,measurement,setting,value
ChTx R25Q: mutant R25Q (a glutamine substituting arginine in position 25) of ChTx,effect of external K^+ on block of Shaker (in words),Shaker B K^+ channels [1],destabilized by Ko ^+ ions; also recorded: decreased by Ko ^+
Charybdotoxin [ChTx],effect of external K^+ on block of Shaker (in words),Shaker B K^+ channels [1],not altered by external K^+ ions; also recorded: not destabilized by Ko ^+
"CC[N+](CC)(CC)CC [TEAo, tetraethylammonium]",change of binding affinity in 0 K^+ (in words),Shaker B K^+ channels [2]; Shaker channels,did not find a significant change in the binding affinity
same,affinity (Kd) for inhibiting drop of GK vs block of IK (in words),Shaker B K^+ channels [2],basically the same affinity (Kd) with which it blocks the K^+ current (IK)
same,effect on collapse of GK in 0 K^+ (in words),Shaker B K^+ channels [2],impedes the drop of GK in 0 K^+; also recorded: impedes the collapse of GK
same,effect on collapse of GK in 0 K^+ (in words),Shaker B K^+ channels [2]; listed as TEA,the collapse of GK is prevented
Agitoxin2 [AgTx2],effect of external K^+ on binding to Shaker (in words),"Shaker B K^+ channels [1]; ref Ranganathan et al., 1996",destabilized by Ko ^+ ions
